In the assay the target is MMP-13 (Homo sapiens, UniProt P45452). Briefly: EnzoLyte 520 Generic MMP Assay Kit, 5-FAM/QXL520 FRET peptide substrate. It counts as biochemical. From the text:
The EnzoLyte™ 520 Generic MMP Assay Kit (AnaSpec Inc.) can detect the activity of several MMPs including MMP-1, 2, 3, 7, 8, 9, 13, and 14. This kit uses a 5-FAM/QXL™520 fluorescence resonance energy transfer (FRET) peptide as an MMP substrate.

Usually IC50 stands for the concentration needed to halve the response being measured. A high value points to lower potency. The compound `CNC(=O)[C@@H](NC(=O)c1ccc(-c2cccc(CNC(=O)c3cccc(C(F)(F)F)n3)c2)o1)C1CCOCC1` [N-[3-(5-{[(1S)-2-(methylamino)-2-oxo-1-(tetrahydro-2H-pyran-4-yl)ethyl]carbamoyl}-2-furyl)benzyl]-6-(trifluoromethyl)pyridine-2-carboxamide] yielded an IC50 of 0.002 µM.

On to `Cc1cccc(C(=O)Nc2ccc(-c3ccc(C(=O)N[C@H](C(=O)NC[C@H](C)O)C4CCCCC4)o3)cc2)n1` [N-[4-(5-{[(1S)-1-cyclohexyl-2-{[(2S)-2-hydroxypropyl]amino}-2-oxoethyl]carbamoyl}furan-2-yl)phenyl]-6-methylpyridine-2-carboxamide], for which the IC50 turned out to be 0.023 µM.

The compound `CNC(=O)[C@@H](NC(=O)c1ccc(-c2cccc(CNC(=O)c3ccnc(Cl)n3)c2)o1)C(C)C` [2-Chloro-N-[3-(5-{[(1S)-2-methyl-1-(methylcarbamoyl)propyl]carbamoyl}-2-furyl)benzyl]pyrimidine-4-carboxamide] registered an IC50 of 0.009 µM.

As for `CNC(=O)[C@@H](NC(=O)c1ccc(-c2cccc(CNC(=O)c3ccc(C)cc3)c2)o1)C(C)C` [5-{3-[(4-Methyl-benzoylamino)-methyl]-phenyl}-furan-2-carboxylic acid ((S)-2-methyl-1-methylcarbamoyl-propyl)-amide], the IC50 worked out at 0.175 µM.

For the compound `CNC(=O)[C@@H](NC(=O)c1ccc(-c2cccc(CNC(=O)c3ccco3)c2)o1)C1CCCCC1` [N-[(1S)-1-cyclohexyl-2-(methylamino)-2-oxoethyl]-5-(3-{[(furan-2-ylcarbonyl)amino]methyl}phenyl)furan-2-carboxamide], the IC50 was 0.075 µM.

Compound `CNC(=O)[C@@H](NC(=O)c1ccc(-c2ccc(NC(=O)c3cc4ccccc4o3)cc2)o1)C1CCCCC1` [N-[4-(5-{[(1S)-1-cyclohexyl-2-(methylamino)-2-oxoethyl]carbamoyl}furan-2-yl)phenyl]-1-benzofuran-2-carboxamide] registered an IC50 of 0.496 µM.

Consider `CNC(=O)[C@@H](NC(=O)c1ccc(-c2cccc(CNC(=O)c3cc(C(F)(F)F)n[nH]3)c2)o1)C(C)C` [5-Trifluoromethyl-2H-pyrazole-3-carboxylic acid 3-[5-((S)-2-methyl-1-methylcarbamoyl-propylcarbamoyl)-furan-2-yl]-benzylamide], for which the midpoint of inhibition, the IC50, lay at 0.16 µM.

`CNC(=O)[C@@H](NC(=O)c1ccc(-c2cccc(CNC(=O)c3cn4ccc(C)cc4n3)c2)o1)C1CCCCC1` [N-[3-(5-{[(1S)-1-cyclohexyl-2-(methylamino)-2-oxoethyl]carbamoyl}furan-2-yl)benzyl]-7-methylimidazo[1,2-a]pyridine-2-carboxamide] had an IC50 of 0.137 µM.

Compound `CNC(=O)[C@@H](NC(=O)c1ccc(-c2cccc(CNC(=O)c3cccc(C(C)C)c3)c2)o1)C(C)C` [5-{3-[(3-Isopropyl-benzoylamino)-methyl]-phenyl}-furan-2-carboxylic acid ((S)-2-methyl-1-methylcarbamoyl-propyl)-amide] returned an IC50 of 0.16 µM.

`C[C@@H](CO)NC(=O)[C@@H](NC(=O)c1ccc(-c2ccc(C#N)cc2)o1)C1CCCCC1` [5-(4-cyanophenyl)-N-[(1S)-1-cyclohexyl-2-{[(2S)-1-hydroxypropan-2-yl]amino}-2-oxoethyl]furan-2-carboxamide] came in with an IC50 of 0.195 µM.

In the case of `CNC(=O)[C@@H](NC(=O)c1ccc(-c2ccc(-c3ccncc3)cn2)o1)C(C)C` [5-[3,4′]Bipyridinyl-6-yl-furan-2-carboxylic acid ((S)-2-methyl-1-methylcarbamoyl-propyl)-amide], the IC50 amounted to 0.062 µM.

Take `CNC(=O)[C@@H](NC(=O)c1ccc(-c2cccc(CNC(=O)c3cccnc3)c2)o1)C(C)C` [N-[3-(5-{[(1S)-2-methyl-1-(methylcarbamoyl)propyl]carbamoyl}-2-furyl)benzyl]nicotinamide]: the IC50 came out at 0.355 µM.

`CNC(=O)[C@@H](NC(=O)c1ccc(-c2ccc(C#N)cc2)o1)C1CCCCC1` [5-(4-cyanophenyl)-N-[(1S)-1-cyclohexyl-2-(methylamino)-2-oxoethyl]furan-2-carboxamide] yielded an IC50 of 0.175 µM.

`CNC(=O)[C@@H](NC(=O)c1ccc(-c2ccc(OCc3cc(C)cc(C)c3)cn2)o1)C1CCCCC1` [N-[(1S)-1-cyclohexyl-2-(methylamino)-2-oxoethyl]-5-{5-[(3,5-dimethylbenzyl)oxy]pyridin-2-yl}furan-2-carboxamide] displayed an IC50 of 0.115 µM.

`CNC(=O)[C@@H](NC(=O)c1ccc(-c2ccc(OCc3cc(C)nn3C)cc2)o1)C1CCCCC1` [5-[4-(2,5-Dimethyl-2H-pyrazol-3-ylmethoxy)-phenyl]-furan-2-carboxylic acid ((S)-cyclohexyl-methylcarbamoyl-methyl)-amide]: the midpoint of inhibition, the IC50, lay at 0.006 µM.

Compound `CNC(=O)[C@@H](NC(=O)c1ccc(-c2ccc(NC(=O)c3occc3C)cc2)o1)C1CCCCC1` [N-[4-(5-{[(1S)-1-cyclohexyl-2-(methylamino)-2-oxoethyl]carbamoyl}furan-2-yl)phenyl]-3-methylfuran-2-carboxamide] registered an IC50 of 0.093 µM.

With `CNC(=O)[C@@H](NC(=O)c1ccc(-c2cccc(CNC(=O)c3cc(C(F)(F)F)n(C)n3)c2)o1)C(C)C` [1-Methyl-5-trifluoromethyl-1H-pyrazole-3-carboxylic acid 3-[5-((S)-2-methyl-1-methylcarbamoyl-propylcarbamoyl)-furan-2-yl]-benzylamide], half-maximal inhibition (IC50) was put at 0.039 µM.

Take `CNC(=O)[C@@H](NC(=O)c1ccc(-c2ccc(-c3ccncc3)cn2)o1)C1CCCCC1` [5-[3,4′]Bipyridinyl-6-yl-furan-2-carboxylic acid ((S)-cyclohexyl-methylcarbamoyl-methyl)-amide]: half-maximal inhibition (IC50) required 0.023 µM.

`CNC(=O)[C@@H](NC(=O)c1ccc(-c2ccc(-c3ccc(OC(C)C)cc3)cn2)o1)C(C)C` [5-[5-(4-Isopropoxy-phenyl)-pyridin-2-yl]-furan-2-carboxylic acid ((S)-2-methyl-1-methylcarbamoyl-propyl)-amide]: half-maximal inhibition (IC50) was put at 0.029 µM.

As for `CNC(=O)[C@@H](NC(=O)c1ccc(-c2ccc([N+](=O)[O-])cc2)o1)C1CCCCC1` [N-[(1S)-1-cyclohexyl-2-(methylamino)-2-oxoethyl)-5-(4-nitrophenyl)furan-2-carboxamide], inhibition was half-maximal at 0.47 µM (IC50).

In turn, `CNC(=O)[C@@H](NC(=O)c1ccc(-c2ccc(NC(=O)c3cn4cccc(C)c4n3)cc2)o1)C1CCCCC1` [N-[4-(5-{[(1S)-1-cyclohexyl-2-(methylamino)-2-oxoethyl]carbamoyl}furan-2-yl)phenyl]-8-methylimidazo[1,2-a]pyridine-2-carboxamide] gave an IC50 of 0.099 µM.

`CNC(=O)[C@@H](NC(=O)c1ccc(-c2cccc(CNC(=O)c3ccc(C)c(C)c3)c2)o1)C(C)C` [5-{3-[(3,4-Dimethyl-benzoylamino)-methyl]-phenyl}-furan-2-carboxylic acid ((S)-2-methyl-1-methylcarbamoyl-propyl)-amide] yielded a half-inhibitory concentration (IC50) of 0.156 µM.

`COCCNC(=O)[C@@H](NC(=O)c1ccc(-c2ccc(C#N)cc2)o1)C1CCCCC1` [5-(4-cyanophenyl)-N-{(1S)-1-cyclohexyl-2-[(2-methoxyethyl)amino]-2-oxoethyl}furan-2-carboxamide] gave an IC50 of 0.074 µM.

In the case of `CNC(=O)[C@@H](NC(=O)c1ccc(-c2ccc(OCc3cc(C)ccn3)cn2)o1)C1CCCCC1` [N-[(1S)-1-cyclohexyl-2-(methylamino)-2-oxoethyl]-5-{5-[(4-methylpyridin-2-yl)methoxy]pyridin-2-yl}furan-2-carboxamide], the IC50 came to 0.008 µM.

In turn, `CNC(=O)[C@@H](NC(=O)c1ccc(-c2ccc(OCc3cccc(C)c3)cn2)o1)C1CCCCC1` [N-[(1S)-1-cyclohexyl-2-(methylamino)-2-oxoethyl]-5-{5-[(3-methylbenzyl)oxy]pyridin-2-yl}furan-2-carboxamide] gave an IC50 of 0.036 µM.

In turn, `CNC(=O)[C@@H](NC(=O)c1ccc(-c2cccc(CNC(=O)c3cccnn3)c2)o1)C(C)C` [N-[3-(5-{[(1S)-2-methyl-1-(methylcarbamoyl)propyl]carbamoyl}-2-furyl)benzyl]pyridazine-3-carboxamide] came in with an IC50 of 0.42 µM.

In turn, `CNC(=O)[C@@H](NC(=O)c1ccc(-c2ccc(NC(=O)c3cccc(C)n3)cc2)o1)C1CCCCC1` [N-[4-(5-{[(1S)-1-cyclohexyl-2-(methylamino)-2-oxoethyl]carbamoyl}furan-2-yl)phenyl]-6-methylpyridine-2-carboxamide] had an IC50 of 0.017 µM.

In turn, `CCOc1ccc(-c2ccc(-c3ccc(C(=O)N[C@H](C(=O)NC)C(C)C)o3)nc2)cc1` [5-[5-(4-Ethoxy-phenyl)-pyridin-2-yl]-furan-2-carboxylic acid ((S)-2-methyl-1-methylcarbamoyl-propyl)-amide] returned an IC50 of 0.047 µM.

As to `CNC(=O)[C@@H](NC(=O)c1ccc(-c2cccc(CNC(=O)NC(C)C)c2)o1)C1CCCCC1` [N-[(1S)-1-cyclohexyl-2-(methylamino)-2-oxoethyl]-5-(3-{[(propan-2-ylcarbamoyl)amino]methyl}phenyl)furan-2-carboxamide], the IC50 came to 0.205 µM.

`CNC(=O)[C@@H](NC(=O)c1ccc(-c2ccc(OCc3cc4ccccc4o3)cn2)o1)C1CCCCC1` [5-[5-(1-Benzofuran-2-ylmethoxy)pyridin-2-yl]-N-[(1S)-1-cyclohexyl-2-(methylamino)-2-oxoethyl]furan-2-carboxamide] registered an IC50 of 0.006 µM.

The compound `CNC(=O)[C@@H](NC(=O)c1ccc(-c2ccc(NC(=O)c3cn4cc(C(N)=O)ccc4n3)cc2)o1)C1CCCCC1` [Imidazo[1,2-a]pyridine-2,6-dicarboxylic acid 6-amide 2-[(4-{5-[((S)-cyclohexyl-methylcarbamoyl-melhyl)-carbamoyl]-furan-2-yl}-phenyl)-amide]] displayed an IC50 of 0.024 µM.

Regarding `CNC(=O)[C@@H](NC(=O)c1ccc(-c2cccc(CNC(=O)c3cccc(F)n3)c2)o1)C(C)C` [6-Fluoro-N-[3-(5-{[(1S)-2-methyl-1-(methylcarbamoyl)propyl]carbamoyl}-2-furyl)benzyl]pyridine-2-carboxamide], inhibition was half-maximal at 0.002 µM (IC50).

In the case of `CCOc1ccc(-c2ccc(C(=O)N[C@H](C(=O)NC)C3CCCCC3)o2)nc1` [N-[(1S)-1-cyclohexyl-2-(methylamino)-2-oxoethyl]-5-(5-ethoxypyridin-2-yl)furan-2-carboxamide], the IC50 is 0.032 µM.

The values above are taken from patent publication US8637550B2, “Heteroaryl diamide compounds useful as MMP-13 inhibitors” (Boehringer Ingelheim International GmbH, priority 2008, dated 2014).
